According to US12618095B2, “Medium for Bacillus cereus group detection” (SHIMADZU DIAGNOSTICS CORPORATION, priority 2020, dated 2026):

Experiments:
Assay in all cases: Test Example 10: agar medium with aztreonam or ceftazidime
[1] = system: E. coli; format: cell-based; conditions: 22 hours; for Number of colonies: ATCC8739; on Number of colonies: key: +: Growth positive; −: Non-growth
[2] = system: B. cereus; conditions: 22 hours
[3] = system: E. amnigenus; conditions: 22 hours; for Number of colonies: ATCC33072
[4] = system: B. thuringiensis; conditions: NBRC101235, 22 hours
[5] = Ceftazidime 0.05 mg, 10^1 cfu/mL
[6] = Ceftazidime 0.05 mg, 10^2 cfu/mL
[7] = Ceftazidime 0.05 mg, 10^3 cfu/mL
[8] = Ceftazidime 0.05 mg, 10^4 cfu/mL
[9] = Ceftazidime 0.05 mg, 10^5 cfu/mL
[10] = Ceftazidime 0.5 mg, 10^1 cfu/mL
[11] = Ceftazidime 0.5 mg, 10^2 cfu/mL
[12] = Ceftazidime 0.5 mg, 10^3 cfu/mL
[13] = Ceftazidime 0.5 mg, 10^4 cfu/mL
[14] = Ceftazidime 0.5 mg, 10^5 cfu/mL

## CC(C)(O/N=C(\C(=O)N[C@@H]1C(=O)N2C(C(=O)[O-])=C(C[n+]3ccccc3)CS[C@H]12)c1csc(N)n1)C(=O)O [ceftazidime]
[1]; [5]
  Number of colonies: −
[1]; [6]
  Number of colonies: −
[1]; [7]
  Number of colonies: −
[1]; [8]
  Number of colonies: −
[1]; [9]
  Number of colonies: −
[1]; [10]
  Number of colonies: −
[1]; [11]
  Number of colonies: −
[1]; [12]
  Number of colonies: −
[1]; [13]
  Number of colonies: −
[1]; [14]
  Number of colonies: −
[1]; Ceftazidime 5 mg, 10^1 cfu/mL
  Number of colonies: −
[1]; Ceftazidime 5 mg, 10^2 cfu/mL
  Number of colonies: −
[1]; Ceftazidime 5 mg, 10^3 cfu/mL
  Number of colonies: −
[1]; Ceftazidime 5 mg, 10^4 cfu/mL
  Number of colonies: −
[1]; Ceftazidime 5 mg, 10^5 cfu/mL
  Number of colonies: −
[1]; added to TSA-BC, 30° C.
  formation of a white colony: suppressed
[2]; ATCC11778, Ceftazidime 0.05 mg, 10^1 cfu/mL
  Number of colonies: 2
[2]; ATCC11778, Ceftazidime 0.05 mg, 10^2 cfu/mL
  Number of colonies: 11
[2]; ATCC11778, Ceftazidime 0.05 mg, 10^3 cfu/mL
  Number of colonies: +
[2]; ATCC11778, Ceftazidime 0.05 mg, 10^4 cfu/mL
  Number of colonies: +
[2]; ATCC11778, Ceftazidime 0.05 mg, 10^5 cfu/mL
  Number of colonies: +
[2]; ATCC11778, Ceftazidime 0.5 mg, 10^1 cfu/mL
  Number of colonies: −
[2]; ATCC11778, Ceftazidime 0.5 mg, 10^2 cfu/mL
  Number of colonies: 13
[2]; ATCC11778, Ceftazidime 0.5 mg, 10^3 cfu/mL
  Number of colonies: +
[2]; ATCC11778, Ceftazidime 0.5 mg, 10^4 cfu/mL
  Number of colonies: +
[2]; ATCC11778, Ceftazidime 0.5 mg, 10^5 cfu/mL
  Number of colonies: +
[2]; ATCC11778, Ceftazidime 5 mg, 10^1 cfu/mL
  Number of colonies: −
[2]; ATCC11778, Ceftazidime 5 mg, 10^2 cfu/mL
  Number of colonies: 17
[2]; ATCC11778, Ceftazidime 5 mg, 10^3 cfu/mL
  Number of colonies: +
[2]; ATCC11778, Ceftazidime 5 mg, 10^4 cfu/mL
  Number of colonies: +
[2]; ATCC11778, Ceftazidime 5 mg, 10^5 cfu/mL
  Number of colonies: +
[2]; ATCC19637, Ceftazidime 0.05 mg, 10^1 cfu/mL
  Number of colonies: −
[2]; ATCC19637, Ceftazidime 0.05 mg, 10^2 cfu/mL
  Number of colonies: 7
[2]; ATCC19637, Ceftazidime 0.05 mg, 10^3 cfu/mL
  Number of colonies: +
[2]; ATCC19637, Ceftazidime 0.05 mg, 10^4 cfu/mL
  Number of colonies: +
[2]; ATCC19637, Ceftazidime 0.05 mg, 10^5 cfu/mL
  Number of colonies: +
[2]; ATCC19637, Ceftazidime 0.5 mg, 10^1 cfu/mL
  Number of colonies: −
[2]; ATCC19637, Ceftazidime 0.5 mg, 10^2 cfu/mL
  Number of colonies: 12
[2]; ATCC19637, Ceftazidime 0.5 mg, 10^3 cfu/mL
  Number of colonies: +
[2]; ATCC19637, Ceftazidime 0.5 mg, 10^4 cfu/mL
  Number of colonies: +
[2]; ATCC19637, Ceftazidime 0.5 mg, 10^5 cfu/mL
  Number of colonies: +
[2]; ATCC19637, Ceftazidime 5 mg, 10^1 cfu/mL
  Number of colonies: 3
[2]; ATCC19637, Ceftazidime 5 mg, 10^2 cfu/mL
  Number of colonies: 5
[2]; ATCC19637, Ceftazidime 5 mg, 10^3 cfu/mL
  Number of colonies: +
[2]; ATCC19637, Ceftazidime 5 mg, 10^4 cfu/mL
  Number of colonies: +
[2]; ATCC19637, Ceftazidime 5 mg, 10^5 cfu/mL
  Number of colonies: +
[3]; [5]
  Number of colonies: −
[3]; [6]
  Number of colonies: −
[3]; [7]
  Number of colonies: 1
[3]; [8]
  Number of colonies: 33
[3]; [9]
  Number of colonies: +
[3]; [10]
  Number of colonies: −
[3]; [11]
  Number of colonies: −
[3]; [12]
  Number of colonies: −
[3]; [13]
  Number of colonies: −
[3]; [14]
  Number of colonies: −
[3]; Ceftazidime 5 mg, 10^1 cfu/mL
  Number of colonies: −
[3]; Ceftazidime 5 mg, 10^2 cfu/mL
  Number of colonies: −
[3]; Ceftazidime 5 mg, 10^3 cfu/mL
  Number of colonies: −
[3]; Ceftazidime 5 mg, 10^4 cfu/mL
  Number of colonies: −
[3]; Ceftazidime 5 mg, 10^5 cfu/mL
  Number of colonies: −
[3]; added to TSA-BC, 30° C.
  formation of a white colony: suppressed
[4]; [5]
  Number of colonies: 5
[4]; [6]
  Number of colonies: 13
[4]; [7]
  Number of colonies: +
[4]; [8]
  Number of colonies: +
[4]; [9]
  Number of colonies: +
[4]; [10]
  Number of colonies: 3
[4]; [11]
  Number of colonies: 10
[4]; [12]
  Number of colonies: +
[4]; [13]
  Number of colonies: +
[4]; [14]
  Number of colonies: +
[4]; Ceftazidime 5 mg, 10^1 cfu/mL
  Number of colonies: 4
[4]; Ceftazidime 5 mg, 10^2 cfu/mL
  Number of colonies: 16
[4]; Ceftazidime 5 mg, 10^3 cfu/mL
  Number of colonies: +
[4]; Ceftazidime 5 mg, 10^4 cfu/mL
  Number of colonies: +
[4]; Ceftazidime 5 mg, 10^5 cfu/mL
  Number of colonies: +
